Reference: BindingDB's records for doi:10.1021/jm050256l (Umr 8525 Cnrs-Universit&#233, 2005)

Biological target: T1, Glutathione reductase, mitochondrial (Homo sapiens, UniProt P00390)
T1 sequence (P00390 whole entry): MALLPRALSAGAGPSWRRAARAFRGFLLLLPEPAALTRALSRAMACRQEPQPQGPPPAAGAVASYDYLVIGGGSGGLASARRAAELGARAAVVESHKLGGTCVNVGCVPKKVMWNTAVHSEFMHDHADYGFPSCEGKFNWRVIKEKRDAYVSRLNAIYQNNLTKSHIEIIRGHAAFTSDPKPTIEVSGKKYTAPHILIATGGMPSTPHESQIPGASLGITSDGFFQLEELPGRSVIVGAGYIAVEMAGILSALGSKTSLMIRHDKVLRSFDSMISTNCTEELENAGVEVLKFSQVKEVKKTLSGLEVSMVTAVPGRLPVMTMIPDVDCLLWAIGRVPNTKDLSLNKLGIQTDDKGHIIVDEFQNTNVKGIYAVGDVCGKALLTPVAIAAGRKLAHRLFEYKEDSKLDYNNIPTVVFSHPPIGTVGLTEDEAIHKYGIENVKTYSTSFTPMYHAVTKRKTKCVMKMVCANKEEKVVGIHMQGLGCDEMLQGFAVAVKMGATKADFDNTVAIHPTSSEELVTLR
Test: Inhibitory concentration against human glutathione reductase

An IC50 of 1000 nM was found for `O=C(Cc1ccc2ccc(NC(=O)C[N]3CC[NH][Pt]3([Cl])[Cl])cc2c1)NNC(=O)c1ccc([N+](=O)[O-])o1` [2-(2-Amino-ethylamino)-N-(7-{2-[N'-(5-nitro-furan-2-carbonyl)-hydrazino]-2-oxo-ethyl}-naphthalen-2-yl)-acetamide; compound with GENERIC INORGANIC NEUTRAL COMPONENT] in this work.
